Entries after “also recorded” stand apart in the source; their conditions may differ.
System: TH2AF1
Assay: TH2AF1 expression in lung of C57BL/6 mice after intratracheal instillation of recombinant cytokines
Assay type: in vivo, mouse
Settings: recombinant cytokine instilled into trachea of C57BL/6 mice, FIG. 5
Procedure: To confirm that the expression of IL-9 was critically related to the expression of TH2AF1 and to control for genetic background specifically, recombinant murine IL-9 was introduced into the lung of murine strain C57BL/6. Recombinant IL-9 was instilled into the trachea of anesthetized mice by addition of 50 μl of a 0.1 mg/ml IL-9 solution or vehicle alone (0.1% bovine serum albumin) daily for ten days. After ten days, the mice were euthanized and lungs extracted for either RNA expression analysis using Trizol as described by the manufacturer (Gibco-BRL) or Western blot analysis to determine levels of IL-9 instilled.
Expression of TH2AF1 RNA was measured as described in Example 3. […] Ribosomal RNAs (rRNA, lower panel) were stained using ethidium bromide (lower panel) to control for RNA loading.

Molecule: interferon gamma: recombinant TH1 associated cytokine
- induction of TH2AF1 expression in the lung (steady state mRNA): did not induce and not

B1: IL-9: recombinant murine IL-9, TH2 associated cytokine (protein, UniProt P15247 19-144, looked up)
Interleukin-9: QRCSTTWGIRDTNYLIENLKDDPPSKCSCSGNVTSCLCLSVPTDDCTTPCYREGLLQLTNATQKSRLLPVFHRVKRIVEVLKNITCPSFSCEKPCNQTMAGNTLSFLKSLLGTFQKTEMQRQKSRP
- induction of TH2AF1 expression in the lung (steady state mRNA): expressed; also recorded: induced the expression
